Results taken from patent US6864247B2, “Therapeutic agents for glomerulosclerosis” (priority 1999, dated 2005).

Legend:
[1] = test system: rat model of anti-Thy 1 antibody-induced nephritis; assay: Renal histology (glomerular cell count, glomerulosclerosis index, glomerular volume) in rat model of anti-Thy 1 antibody-induced nephritis; assay type: in vivo; details: 0.4 μg/kg intravenously every two days from the day after OX-7, day 7; for glomerular cell count: FIG. 1; for glomerular volume: FIG. 3; for glomerulosclerosis index: PAM stained samples, FIG. 2
Excerpt: The pharmacological effect of 22-oxa-1α,25-dihydroxyvitamin D3 used as an active ingredient in the present invention can be evaluated on a rat model of a anti-Thy 1 antibody-induced nephritis characterized by showing increased mesangial cell proliferation and mesangial matrix production after administration of an anti-Thy 1 antibody. The pharmacological effect of test compounds can be evaluated by administering an anti-Thy 1 antibody to such a rat model followed by the test compounds, collecting renal tissue at an appropriate time and determining the glomerular cell count or glomerulosclerosis index or determining the expression of collagen by a standard method such as an immunohistochemical technique.
(§1) An anti-Thy 1 antibody (OX-7 purchased from CEDARLANE, Ontario, Canada) was administered into the tail vein of 6-week-old male Wistar rats at 1 mg/kg to induce anti-Thy 1 nephritis. Next day after OX-7 administration, 22-oxa-1α,25-dihydroxyvitamin D3 was intravenously administered at 0.4 μg/kg every two days, and on day 7 after administration, serum, urine and renal tissue were collected.
(§2) For comparison, 1α,25-dihydroxyvitamin D3 was administered in the same manner instead of 22-oxa-1α,25-dihydroxyvitamin D3. Rats not treated with the anti-Thy 1 antibody were used as normal controls. Rats treated with the anti-Thy 1 antibody alone without any vitamin D derivative were used as disease controls.
In the renal tissue, the glomerular cell count, glomerulosclerosis index and glomerular volume were determined (FIGS. 1, 2 and 3). The “glomerular cell count” was determined by counting every cell in every measurable glomerulus on hematoxylin-eosin stained samples. The “glomerulosclerosis index” was evaluated on PAM (periodic acid-methenamine-silver) stained samples according to the method of Raji et al. The “glomerular volume” was determined by using NIH image to calculate the volume of glomeruli read by an image analyzer.

type I collagen (ColI) = assay: Immunohistological examination of type I collagen expression in the mesangium, anti-Thy 1 nephritis rat; assay type: in vivo; details: 0.4 μg/kg intravenously every two days; day 7; immunohistochemistry
Method: as §1, §2
(§3) In the renal tissue, the expression of type I collagen (ColI) and type IV collagen (ColIV) in the mesangium was immunohistologically examined (FIGS. 4-11). Staining was performed on 4 μm sections using an ABC Elite peroxidase staining kit (Vector Lab., Burlingame, Calif., U.S.A.) according to the manufacturer's instructions. The primary antibodies used were a guinea pig anti-rat type I collagen antibody (Boehringer Ingelheim, Co., Ltd., Ingelheim, Germany) and a rabbit anti-rat type IV collagen antibody (Boehringer Ingelheim, Co., Ltd., Ingelheim, Germany).

type IV collagen (ColIV) = assay: Immunohistological examination of type IV collagen expression in the mesangium, anti-Thy 1 nephritis rat; assay type: in vivo; details: 0.4 μg/kg intravenously every two days; day 7; immunohistochemistry
Method: as §1, §2, §3

[2] = test system: rat model of anti-Thy 1 antibody-induced nephritis; assay: Urinary albumin by ELISA in anti-Thy 1 nephritis rat; assay type: in vivo; details: 0.4 μg/kg intravenously every two days; day 7; FIG. 13
Method: as §1, §2
In addition, serum calcium (Ca) was determined with an autoanalyzer (AUTOANALYZER, HITACHI 7170, Tokyo, Japan) and urinary albumin (uALB) was determined with an ELISA kit NEPHRAT II (EXOCELL, INC) (FIGS. 12 and 13).

human mesangial cells = details: literature report; cited from earlier work
[3] = literature report; cited from earlier work
[4] = described in Japanese Patent No. 2854600; cited from earlier work

SMILES | glomerular cell count [1] | glomerular volume [1] | glomerulosclerosis index [1] | expression of ColI in the mesangium (type I collagen (ColI)) | expression of ColIV in the mesangium (type IV collagen (ColIV)) | uALB levels (urinary albumin) [2] | antiproliferative effect on human mesangial cells (human mesangial cells) | differentiation-inducing effect [3] | hypercalcemia [3] | urinary protein excretion [4]
C=C1/C(=C\C=C2/CCC[C@]3(C)[C@@H]([C@H](C)CCCC(C)(C)O)CC[C@@H]23)C[C@@H](O)C[C@@H]1O [1α,25-dihydroxyvitamin D3, reference compound] | significantly suppressed | no effect | significantly suppressed | clearly inhibited | clearly inhibited | significantly suppressed | antiproliferative effect |  |  | 
C=C1/C(=C\C=C2/CCC[C@]3(C)[C@@H]([C@H](C)OCCC(C)(C)O)CC[C@@H]23)C[C@@H](O)C[C@@H]1O [22-oxa-1α,25-dihydroxyvitamin D3, 1α,3β-dihydroxy-20α-(3-hydroxy-3-methylbutyloxy)-9,10-seco-5,7,10 (19)-pregnatriene] | significantly suppressed | no effect | significantly suppressed | clearly inhibited | clearly inhibited | significantly suppressed |  | show a differentiation-inducing effect | without causing hypercalcemia | inhibits
